# Measurements: patent US20160374967A1, “ORGANIC THIOPHOSPHATE ANTIRETROVIRAL AGENTS” (The Government of the U.S.A., as Represented by the …, priority 2006, published 2016)
# Like-named read-outs stand apart in the source and are kept apart here.
# What was measured:
# [1] = mouse, in vivo; cited from earlier work
# HIV-1BZ-167 = assay: HIV-1 replication in PHA-blasts by p24 ELISA, dose-response and combinations; type: cell-based; conditions: for IC50: n=3, read-out: 50% Inhibition of virus replication
# [2] = mice, cited from earlier work
# [3] = in vivo; cited from earlier work
# [4] = cited from earlier work
# PHA-blasts [5] = conditions: human, 72 h
# HIV [6] = assay: microbe, parasite or virus in culture; type: cell-based; conditions: for duration of action (anti-HIV, cell culture): cysteamine re-added every 12 hours, WR-1065 added once in 72 hour period
# adenovirus = assay: Antiviral efficacy against adenovirus; conditions: three different species of adenovirus
# PHA blasts = assay: Viability of PHA blasts exposed to WR-1065 (no HIV), 72 h; type: cell-based, human
# PHA-blasts [7] = assay: Cell survival (cytotoxicity) by trypan blue in HIV-1 infected PHA-blasts
# [8] = rhesus macaques, duodenal 150 mg/kg BW of amifostine or phosphonol, cited from earlier work
# HIV [9] = type: cell-based; conditions: human T-lymphocytes
# TK6 cells = assay: 14-day survival of TK6 cells in continuous presence of WR-1065; type: cell-based, human
# [10] = metabolite after amifostine injection at 500-910 mg/m^2
# [11] = metabolite after amifostine injection
smiles,measurement,setting,value
"NCCCNCCSP(=O)(O)O [Amifostine, S-2-(3-aminopropyl)aminoethyl phosphorothioic acid]",100% effective radioprotective dose,[1],about one half of the MTD
same,inhibition at 50 µM,"HIV-1BZ-167; Human immunodeficiency virus 1, 50 μM amifostine (with alkaline phosphatase), mean±SE, n=4",75.4 ± 8.3%
same,maximally tolerated dose (MTD),[2]; i.p.,432 mg/kg BW
same,maximally tolerated dose (MTD),[2]; p.o.,720 mg/kg BW
same,effects of single doses of up to 2700 mg/m^2,[3],no untoward effects
same,plasma T1/2,[4]; in vivo,~0.167 h
same,cell survival,PHA-blasts [5]; 50 μM,53±10%
"Cc1cn([C@H]2C[C@H](N=[N+]=[N-])[C@@H](CO)O2)c(=O)[nH]c1=O [AZT, Zidovudine, reference compound]",inhibition of virus replication,"HIV-1BZ-167; AZT 0.8, 3.0 and 5.0 μM",85-96%
same,"dose for 50% reduction in HIV-1 replication, fold lower than that of WR-1065",HIV-1BZ-167; AZT versus WR-1065,about 1000 fold
same,inhibition at 7.75 µM,"HIV-1BZ-167; Human immunodeficiency virus 1, 7.75 μM, alone, mean±SD, n=4",96.7 ± 5.1%
same,IC50,"HIV-1BZ-167; Human immunodeficiency virus 1, dose-response 1.9-117.0 nM, mean±SE",3.5 ± 0.7 nM
same,target cell survival,PHA-blasts [5]; 7.75 μM,54±15%
same,HIV Viral P24,"HIV [6]; Experiment #1, 10 μM AZT, 72 h",0.13 pg/mL
same,HIV Viral P24,"HIV [6]; Experiment #2, 10 μM AZT, 72 h",9.07 pg/mL
same,HIV Viral P24,"HIV [6]; Experiment #3, 10 μM AZT, 72 h",2.9 pg/mL
same,inhibition at 10 µM,"HIV [6]; Human immunodeficiency virus 1, PBMC, 72 h, Experiment #1, 10 μM AZT, 72 h, read-out: Estimated percent inhibition",~100%
same,inhibition at 10 µM,"HIV [6]; Human immunodeficiency virus 1, PBMC, 72 h, Experiment #2, 10 μM AZT, 72 h, read-out: Estimated percent inhibition",94.9%
same,inhibition at 10 µM,"HIV [6]; Human immunodeficiency virus 1, PBMC, 72 h, Experiment #3, 10 μM AZT, 72 h, read-out: Estimated percent inhibition",~100%
"NCCCNCCS [WR-1065, 2-(3-aminopropylamino)ethanethiol]",antiviral efficacy,adenovirus,has antiviral efficacy
same,% Viable Cells (compared to control),PHA blasts; 1 μM,83%
same,% Viable Cells (compared to control),PHA blasts; 5 μM,82%
same,% Viable Cells (compared to control),PHA blasts; 10 μM,90%
same,% Viable Cells (compared to control),PHA blasts; 50 μM,89%
same,% Viable Cells (compared to control),PHA blasts; 100 μM,63%
same,% Viable Cells (compared to control),PHA blasts; 500 μM,73%
same,% Viable Cells (compared to control),PHA blasts; 1000 μM,30%
same,cell survival,PHA-blasts [7]; 26 μM WR-1065,37%
same,cell survival,PHA-blasts [7]; 50 μM WR-1065,55±22%
same,cell survival,PHA-blasts [7]; 52 μM WR-1065,49%
same,cell survival,PHA-blasts [7]; 100 μM WR-1065,42±18%
same,cell survival,PHA-blasts [7]; 103 μM WR-1065,78%
same,HIV-1 growth inhibition,HIV-1BZ-167; 103-206 μM WR-1065,≥ 94%
same,inhibition at 26 µM,"HIV-1BZ-167; Human immunodeficiency virus 1, 26 μM WR-1065, mean SE, n=5",65 ± 7.5%
same,inhibition at 50 µM,"HIV-1BZ-167; Human immunodeficiency virus 1, 50 μM WR-1065, n=5",83.2 ± 18.6%
same,inhibition at 52 µM,"HIV-1BZ-167; Human immunodeficiency virus 1, 52 μM WR-1065, n=7",88.7 ± 5.5%
same,inhibition at 100 µM,"HIV-1BZ-167; Human immunodeficiency virus 1, 100 μM WR-1065, n=5",92 ± 11%
same,inhibition at 103 µM,"HIV-1BZ-167; Human immunodeficiency virus 1, 103 μM WR-1065, n=8",93.9 ± 3.1%
same,IC50,"HIV-1BZ-167; Human immunodeficiency virus 1, dose-response 2.5-103.0 μM, mean±SE",3100 ± 600 nM
same,effect on antiretroviral activity of 0.8-3.0 μM AZT,HIV-1BZ-167; WR-1065 at 26 μM,did not inhibit
same,T1/2,[4]; [10],≥ 2 h
same,peak plasma level,[4]; [10],~100 µM
same,bioavailability,[4]; [11],high
same,tissue distribution,[4]; [11],widespread
same,in vitro anti-HIV potency relative to cysteamine,HIV [6],2 fold
same,HIV inhibition in human PBMCs (in words),"HIV [6]; Experiment #1, 1000 μM",inhibits HIV completely
same,HIV Viral P24,"HIV [6]; Experiment #1, 1000 μM WR-1065, 72 h",0.13 pg/mL
same,influence on the effect of 10 μM AZT,"HIV [6]; Experiment #1, 1000 μM WR-1065 with 10 μM AZT",does not appear to alter
same,HIV Viral P24,"HIV [6]; Experiment #2, 100 μM WR-1065, 72 h",8.92 pg/mL
same,HIV Viral P24,"HIV [6]; Experiment #2, 330 μM WR-1065, 72 h",9.31 pg/mL
same,HIV Viral P24,"HIV [6]; Experiment #2, 1000 μM WR-1065, 72 h",8.92 pg/mL
same,HIV infection inhibition in human PBMCs (in words),"HIV [6]; Experiment #2, concentrations as low as 100 μM",inhibit HIV infection completely
same,HIV Viral P24 pg/ml,"HIV [6]; Experiment #3, 5 μM WR-1065, 72 h","10,293.7 pg/ml"
same,HIV Viral P24,"HIV [6]; Experiment #3, 10 μM WR-1065, 72 h",911.2 pg/mL
same,HIV Viral P24,"HIV [6]; Experiment #3, 33 μM WR-1065, 72 h",503.2 pg/mL
same,HIV Viral P24,"HIV [6]; Experiment #3, 66 μM WR-1065, 72 h",33.2 pg/mL
same,inhibition at 1000 µM,"HIV [6]; Human immunodeficiency virus 1, PBMC, 72 h, Experiment #1, 1000 μM WR-1065, 72 h, read-out: Estimated percent inhibition",~100%
same,inhibition at 100 µM,"HIV [6]; Human immunodeficiency virus 1, PBMC, 72 h, Experiment #2, 100 μM WR-1065, 72 h, read-out: Estimated percent inhibition",94.9%
same,inhibition at 330 µM,"HIV [6]; Human immunodeficiency virus 1, PBMC, 72 h, Experiment #2, 330 μM WR-1065, 72 h, read-out: Estimated percent inhibition",94.7%
same,inhibition at 1000 µM,"HIV [6]; Human immunodeficiency virus 1, PBMC, 72 h, Experiment #2, 1000 μM WR-1065, 72 h, read-out: Estimated percent inhibition",94.9%
same,inhibition at 5 µM,"HIV [6]; Human immunodeficiency virus 1, PBMC, 72 h, Experiment #3, 5 μM WR-1065, 72 h, read-out: Estimated percent inhibition",76.8%
same,inhibition at 10 µM,"HIV [6]; Human immunodeficiency virus 1, PBMC, 72 h, Experiment #3, 10 μM WR-1065, 72 h, read-out: Estimated percent inhibition",98%
same,inhibition at 33 µM,"HIV [6]; Human immunodeficiency virus 1, PBMC, 72 h, Experiment #3, 33 μM WR-1065, 72 h, read-out: Estimated percent inhibition",98.9%
same,inhibition at 66 µM,"HIV [6]; Human immunodeficiency virus 1, PBMC, 72 h, Experiment #3, 66 μM WR-1065, 72 h, read-out: Estimated percent inhibition",99.9%
same,suppression of HIV replication,HIV [6]; concentration of less than 100 μM,> 99.9%
same,"duration of action (anti-HIV, cell culture)",HIV [6],long duration of action
same,"Concentration (μg/ml), plasma",[8]; 1 h after administration,6.21 µg/mL
same,"Concentration (μg/ml), plasma",[8]; 2 h after administration,4.14 µg/mL
same,"Concentration (μg/ml), plasma",[8]; 6 h after administration,2.07 µg/mL
same,intra-cellular concentration necessary to reduce HIV replication by ~100%,HIV [9],~50 picomoles/10^6 cells
same,antiviral efficacy,influenza,has antiviral efficacy
same,14-day survival,TK6 cells; continuous 50-100 μM WR-1065,< 20%
same,14-day survival,"TK6 cells; continuous 50-100 μM WR-1065, 10 mg/ml aminoguanidine added from day 4",70-80%
"NCCS [Cysteamine, reference compound]",suppression of HIV replication,HIV [6]; 200 μM,~100%
same,"duration of action (anti-HIV, cell culture)",HIV [6],very short
